SMILES strings stand for the structures. Some results are limits rather than exact numbers.

This is an account of results in ChEMBL document CHEMBL1136543, “3,4-disubstituted azetidinones as selective inhibitors of the cysteine protease cathepsin K. Exploring P2 elements for selectivity” (Bioorg Med Chem Lett, 2003).

The target in experiment [1] is T1, Cathepsin B (Homo sapiens, UniProt P07858). Nature of the experiment: Inhibitory activity was measured against Cathepsin B.
The target of experiment [2] is T2, Cathepsin S (Homo sapiens, UniProt P25774). Nature of the experiment: Inhibitory activity was measured against Cathepsin S.
Target sequence in this assay (P25774 whole entry): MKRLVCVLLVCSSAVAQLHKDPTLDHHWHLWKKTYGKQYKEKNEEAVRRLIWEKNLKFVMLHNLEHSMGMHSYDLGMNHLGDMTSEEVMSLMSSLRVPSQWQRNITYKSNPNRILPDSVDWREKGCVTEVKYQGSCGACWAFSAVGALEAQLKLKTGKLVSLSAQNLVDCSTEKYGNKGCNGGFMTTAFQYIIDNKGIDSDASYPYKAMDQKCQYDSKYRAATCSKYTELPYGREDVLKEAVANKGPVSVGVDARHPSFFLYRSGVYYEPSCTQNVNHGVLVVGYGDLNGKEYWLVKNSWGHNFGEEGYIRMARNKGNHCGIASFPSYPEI
Experiment [3] deals with T2, Cathepsin S. The experiment is described as follows: Selectivity ratio between Cathepsin S and Cathepsin K.
Target sequence in this assay (P25774 115-331 limits assumed): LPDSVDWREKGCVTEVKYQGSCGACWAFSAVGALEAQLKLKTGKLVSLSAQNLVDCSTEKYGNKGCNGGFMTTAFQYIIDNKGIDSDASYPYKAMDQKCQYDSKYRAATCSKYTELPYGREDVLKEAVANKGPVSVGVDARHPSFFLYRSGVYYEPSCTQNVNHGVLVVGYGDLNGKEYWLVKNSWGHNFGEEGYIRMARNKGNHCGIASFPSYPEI
The target of experiment [4] is T1, Cathepsin B. The experiment is described as follows: Selectivity ratio between Cathepsin B and Cathepsin K.
Experiment [5] has as its target T3, Procathepsin L (Homo sapiens, UniProt P07711). Nature of the experiment: Inhibitory activity was measured against Cathepsin L.
Target sequence in this assay (P07711 whole entry): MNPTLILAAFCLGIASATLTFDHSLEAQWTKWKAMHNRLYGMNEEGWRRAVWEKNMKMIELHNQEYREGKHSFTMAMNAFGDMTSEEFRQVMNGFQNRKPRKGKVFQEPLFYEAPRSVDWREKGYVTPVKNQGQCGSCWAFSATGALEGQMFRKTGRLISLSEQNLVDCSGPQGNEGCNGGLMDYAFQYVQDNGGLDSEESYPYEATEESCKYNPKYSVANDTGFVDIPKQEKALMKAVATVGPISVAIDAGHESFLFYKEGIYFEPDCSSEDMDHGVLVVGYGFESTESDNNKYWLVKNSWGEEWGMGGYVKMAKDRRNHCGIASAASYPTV
In experiment [6] the target is T3, Procathepsin L. Nature of the experiment: Selectivity ratio between Cathepsin L and Cathepsin K.
Target sequence in this assay (P07711 114-333 limits assumed): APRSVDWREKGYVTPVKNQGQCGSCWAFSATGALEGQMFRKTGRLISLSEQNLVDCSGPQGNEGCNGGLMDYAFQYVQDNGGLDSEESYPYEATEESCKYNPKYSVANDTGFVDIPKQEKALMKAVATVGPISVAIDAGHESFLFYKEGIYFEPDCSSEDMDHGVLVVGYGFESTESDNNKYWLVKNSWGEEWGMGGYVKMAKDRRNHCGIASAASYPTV
A further experiment has as its target T4, Cathepsin K (Homo sapiens, UniProt P43235).
T4 sequence (P43235 whole entry): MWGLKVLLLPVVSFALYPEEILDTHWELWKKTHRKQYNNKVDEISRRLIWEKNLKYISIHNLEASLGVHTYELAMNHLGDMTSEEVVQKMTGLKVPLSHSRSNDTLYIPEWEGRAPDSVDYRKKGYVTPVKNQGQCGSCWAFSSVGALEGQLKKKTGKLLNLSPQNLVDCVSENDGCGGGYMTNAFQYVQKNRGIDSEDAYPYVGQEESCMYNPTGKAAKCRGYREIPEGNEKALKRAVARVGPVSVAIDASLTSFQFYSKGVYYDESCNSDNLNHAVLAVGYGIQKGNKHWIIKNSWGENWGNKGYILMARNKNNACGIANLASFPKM
Nature of the experiment: Inhibitory activity was measured against Cathepsin K.

As a reminder, the Ki is a measure of affinity in units of concentration, obtained from inhibition or displacement. Higher therefore signals a looser hold on the target. As to `CC(=O)O[C@@H]1NC(=O)[C@H]1NC(=O)C1(NC(=O)OCc2ccccc2)CCCC1`, the Ki at Cathepsin B [1] is 7.7 µM; on Cathepsin S [2], 28 µM; on Procathepsin L [5] it was 140 µM; on Cathepsin K, 0.16 µM. Also, the Ratio on Cathepsin S [3] stood at 175; on Cathepsin B [4], 48; on Procathepsin L [6], 870.

In the case of `O=C(NC1(C(=O)N[C@@H]2C(=O)N[C@@H]2Oc2ccccc2)CCCCC1)OCc1ccccc1`, the Ki is more than 150 µM on Cathepsin B [1], 53 µM on Cathepsin S [2], 16 µM on Procathepsin L [5] and 3.6 µM on Cathepsin K. The Ratio at Cathepsin S [3] is 15; on Cathepsin B [4], more than 40; on Procathepsin L [6], 4.

Regarding `O=C(NC1(C(=O)N[C@@H]2C(=O)N[C@H]2Oc2ccccc2)CCCCC1)OCc1ccccc1`, the Ki is 140 µM on Cathepsin B [1], 33 µM on Cathepsin S [2], 3.4 µM on Procathepsin L [5] and 0.38 µM on Cathepsin K. For the same molecule, the Ratio on Cathepsin S [3] worked out at 87; at Cathepsin B [4], 368; at Procathepsin L [6], 9.

Take `CC(=O)O[C@@H]1NC(=O)[C@H]1NC(=O)[C@@H]1CCC[C@@H]1NC(=O)OCc1ccccc1`: the Ki at Cathepsin B [1] is 52 µM; at Cathepsin S [2] it was 11 µM; at Procathepsin L [5], more than 150 µM; at Cathepsin K it was 2.1 µM. Further, the Ratio at Cathepsin S [3] is 5; at Cathepsin B [4], 24; on Procathepsin L [6] it was more than 70.

Turning to `CC(=O)O[C@@H]1NC(=O)[C@H]1NC(=O)C1(NC(=O)OCc2ccccc2)CCCCC1`, the inhibition constant Ki on Cathepsin B [1] worked out at 4.3 µM; on Cathepsin S [2], 0.95 µM; on Procathepsin L [5], 6.8 µM; at Cathepsin K it was 0.0057 µM. The Ratio amounted to 160 at Cathepsin S [3], 750 on Cathepsin B [4] and 1190 at Procathepsin L [6].

As to `CC(=O)O[C@@H]1NC(=O)[C@H]1NC(=O)[C@@H]1CCCC[C@@H]1NC(=O)OCc1ccccc1`, the Ki was found to be 1.6 µM on Cathepsin B [1], 0.13 µM on Cathepsin S [2], 3.7 µM on Procathepsin L [5] and 0.0088 µM at Cathepsin K. Moreover, the results for the Ratio at Cathepsin S [3], at Cathepsin B [4] and on Procathepsin L [6] were 15, 180 and 420, respectively.

Consider `CC(=O)O[C@@H]1NC(=O)[C@H]1NC(=O)[C@H](CC(C)C)NC(=O)OCc1ccccc1`, for which the Ki at Cathepsin B [1] stood at 2.1 µM; on Cathepsin S [2], 0.0092 µM; at Procathepsin L [5] it was 0.088 µM; on Cathepsin K it was 0.0022 µM. Further, the Ratio at Cathepsin S [3] came out at 4; on Cathepsin B [4], 950; on Procathepsin L [6], 40.

`CC(=O)O[C@@H]1NC(=O)[C@H]1NC(=O)C1CCCCN1C(=O)OCc1ccccc1` (stereo partly drawn): the Ki at Cathepsin B [1] is 65 µM; on Cathepsin S [2] it was 20 µM; at Procathepsin L [5], more than 150 µM; at Cathepsin K, 0.2 µM. The figures for the Ratio at Cathepsin S [3], on Cathepsin B [4] and on Procathepsin L [6] were 100, 320 and more than 750, respectively.

As for `CC(=O)O[C@@H]1NC(=O)[C@H]1NC(=O)C1CCCN1C(=O)OCc1ccccc1` (stereo partly drawn), the Ki on Cathepsin B [1] is 120 µM; at Cathepsin S [2], more than 150 µM; at Procathepsin L [5] it was more than 150 µM; at Cathepsin K, 0.95 µM. Besides, the Ratio is more than 160 at Cathepsin S [3], 120 on Cathepsin B [4] and more than 160 at Procathepsin L [6].
